Data: paper PMC12022909, “A Multicomponent Reaction-Based Platform Opens New Avenues in Aryl Hydrocarbon Receptor Modulation” (ACS Central Science, 2025)

How the values were obtained:
[1] = Solubility in the growing media during cytotoxicity testing; assay type: physicochemical; details: concentration of 100 µM
Description: A phosphatidylserine exposure was used to determine cell viability. Cells were washed with PBS, pelleted, and then incubated with annexin binding buffer containing Annexin V-APC (Life Technologies) for 15 min in the dark. Then, samples were analyzed by flow cytometry using FACSCanto II and FACSDiva (BD Biosciences, Franklin Lakes, NJ, USA). Data represents the percentage of non - apoptotic cells (Ann -APC-).
The cytotoxicity of a selection of the synthesized compounds was assessed after 24 hours of treatment in two human cell lines, Jurkat and HEK293T, coming from either tumoral T-cell lymphocytes or non-tumoral embryonic kidney fibroblasts, respectively. […]
the pro-apoptotic activity was not significant below 10 µM for most compounds in both cell lines, except for 5i, 5k and 5l in both cell lines, as well as 9a in Jurkat and 5e HEK293T cells (Figure S35A-B).
Moreover, the cytotoxicity of compounds 4d, 5b, 5h, 8, 10, and 12d at a higher concentration (100 µM) was assessed in both cell lines, Jurkat and HEK293T. The cytotoxicity of compounds 5b, 5h, and 12d could not be properly tested as the compounds were not soluble […]
effects observed for compound 4d in Jurkat cells and compound 8 in HEK293T cells (Figure S35C).
Figure S35. A) Jurkat and B) HEK293T cells were treated with 1 and 10 µM doses of the corresponding compound for 24 hours. Indicated doses of fluorizoline were used as a positive control of cell death. C) Jurkat and HEK293T cells were treated with 100 µM of the corresponding compound for 24 hours. Viability was measured by flow cytometry, and it is expressed as the mean ± SEM (n = 3) of the percentage of non -apoptotic cells (Ann-APC-). * p < 0.05, ** p < 0.01 *** p < […]
(1 picture or pasted object on this page, not shown here)

HaCaT cells = assay: UVA phototoxicity, caspase 3 activity in HaCaT cells; assay type: cell-based, human; details: for UVA radiation-induced caspase activity (phototoxicity): HaCaT, 1 h, UVA 5 J/cm2
Description: Irradiation with UVA and caspase 3 activity measurement […]
culture media was exchanged with PBS and the cells were sham or UVA (5 J/cm2) irradiated using the BS-02 irradiation chamber (Opsytec Dr. Gröbel, Ettlingen Germany). Media was added to the cells and after 4 h incubation, caspase 3 activity was measured as described previously.[33] Protein quantification was done with the Bio-Rad DC protein assay kit (Bio-Rad Laboratories, Hercules, CA) according to the manufacturer protocol.
We compared the phototoxic potential of five of our test compounds (8, 10, 5b, 5h, 4b) as well as the FDA-approved AhR activator […]
induced caspase activity at a concentration of 100 nM (Figure S36A). At a 10-fold higher concentration (1 µM) two of the test compounds […]
Figure S36. […] For statistical analysis a two-way ANOVA (Tukey post-hoc) was performed and data are shown as mean ± SEM. (*, p ≤ 0.05). […]

With `CCOc1c2[nH]c3ccccc3c2cc2[nH]c3ccccc3c12` [compound 8, 6-ethoxy-ICZ] the “solubility in the growing media” value [1] was “slight turbidity”, the “overlap between effective and toxic concentrations” value (HaCaT cells) was “minimal overlap” and the “UVA radiation-induced caspase activity (phototoxicity)” value (HaCaT cells; 100 nM) was “neither tapinarof nor our 6-ICZ compounds enhanced”. The “UVA radiation-induced caspase activity (phototoxicity)” value (HaCaT cells; 1 µM) was “exhibited similar effects to FICZ”.
